From publication PMC6642186, “Molecular mechanism of setron-mediated inhibition of full-length 5-HT3A receptor” (Nature Communications, 2019)
Changes are numbered by the printed parent chain.

How the values were obtained:
[1] = target: T1, 5-HT3AR R65A mutant (Mus musculus, UniProt P23979, R92A); assay: Serotonin dose response by TEVC recordings in oocytes; type: cell-based
T1 construct: Full-length 5-HT3AR messenger RNA (mRNA) was injected into oocytes; expressed in transfected cells; host or cells: Xenopus laevis oocytes (mRNA injection, pTLN vector)
T1 sequence (P23979 24-483 isoform P23979-2 R92A): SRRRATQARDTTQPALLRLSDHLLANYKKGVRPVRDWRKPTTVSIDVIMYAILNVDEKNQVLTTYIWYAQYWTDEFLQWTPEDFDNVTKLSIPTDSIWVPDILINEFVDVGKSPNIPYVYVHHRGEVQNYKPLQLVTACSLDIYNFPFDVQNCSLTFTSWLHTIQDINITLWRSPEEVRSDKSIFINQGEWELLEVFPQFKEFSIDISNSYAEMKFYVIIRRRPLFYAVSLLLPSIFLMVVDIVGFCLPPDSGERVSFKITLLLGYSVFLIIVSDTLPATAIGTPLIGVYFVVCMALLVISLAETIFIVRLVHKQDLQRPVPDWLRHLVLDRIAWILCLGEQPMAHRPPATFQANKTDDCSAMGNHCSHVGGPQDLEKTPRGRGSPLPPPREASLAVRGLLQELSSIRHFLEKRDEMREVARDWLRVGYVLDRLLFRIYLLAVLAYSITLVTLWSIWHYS
Description: (§1) Data are shown as mean ± s.d. (n is indicated within parentheses). Significance at p = 0.001 (***) and […] calculated by two-sample t test for WT and mutants. Source data are provided as a Source Data file
(§2) The gene encoding mouse 5-HT3AR (purchased from GenScript) was inserted into a Xenopus laevis expression vector (pTLN) using cloning primers shown in Supplementary Table 1. DNA linearization was carried out with the Mlu1 restriction enzyme overnight at 37 °C. mRNA synthesis was done using the mMessage mMachine Kit (Ambion) as per the manufacturer’s instructions and purification was done with RNAeasy Kit (Qiagen). mRNA for studied mutants was prepared in the same way. Three to ten nanograms of mRNA was injected into X. laevis oocytes (stages V–VI) and experiments were performed 2–5 days after injection. For control experiments to verify that no endogenous currents were present, oocytes were injected with the same volume of water. W.F. Boron kindly provided oocytes used in this study. Female X. laevis were purchased from Nasco. Animal experimental procedures were approved by Institutional Animal Care and Use Committee (IACUC) of Case Western Reserve University. […] Oocytes were clamped at a holding potential of −60 mV. Solutions were changed using a syringe pump perfusion system flowing at a rate of 6 ml/min.

[2] = target: T2, 5-HT3AR W156Y mutant (Mus musculus, UniProt P23979, W183Y); assay: as above; type: cell-based
T2 construct: Full-length 5-HT3AR messenger RNA (mRNA) was injected into oocytes; expressed in transfected cells; host or cells: Xenopus laevis oocytes (mRNA injection, pTLN vector)
T2 sequence (P23979 24-483 isoform P23979-2 W183Y): T1 sequence (P23979 24-483 isoform P23979-2 R92A) with A69R, W160Y
Description: as §1, §2

[3] = target: T3, 5-HT3AR W63Y mutant (Mus musculus, UniProt P23979, W90Y); assay: as above; type: cell-based
T3 construct: Full-length 5-HT3AR messenger RNA (mRNA) was injected into oocytes; expressed in transfected cells; host or cells: Xenopus laevis oocytes (mRNA injection, pTLN vector)
T3 sequence (P23979 24-483 isoform P23979-2 W90Y): T1 sequence (P23979 24-483 isoform P23979-2 R92A) with W67Y, A69R
Description: as §1, §2

[4] = target: T4, 5-HT3AR Y126F mutant (Mus musculus, UniProt P23979, Y153F); assay: as above; type: cell-based
T4 construct: Full-length 5-HT3AR messenger RNA (mRNA) was injected into oocytes; expressed in transfected cells; host or cells: Xenopus laevis oocytes (mRNA injection, pTLN vector)
T4 sequence (P23979 24-483 isoform P23979-2 Y153F): T1 sequence (P23979 24-483 isoform P23979-2 R92A) with A69R, Y130F
Description: as §1, §2

[5] = target: T5, 5-HT3AR Y207F mutant (Mus musculus, UniProt P23979, Y234F); assay: as above; type: cell-based
T5 construct: Full-length 5-HT3AR messenger RNA (mRNA) was injected into oocytes; expressed in transfected cells; host or cells: Xenopus laevis oocytes (mRNA injection, pTLN vector)
T5 sequence (P23979 24-483 isoform P23979-2 Y234F): T1 sequence (P23979 24-483 isoform P23979-2 R92A) with A69R, Y211F
Description: as §1, §2

[6] = target: T6, wild-type (WT) 5-HT3AR (Mus musculus, UniProt P23979); assay: as above; type: cell-based; conditions: for Normalized current: wt
T6 construct: Full-length 5-HT3AR messenger RNA (mRNA) was injected into oocytes; expressed in transfected cells; host or cells: Xenopus laevis oocytes (mRNA injection, pTLN vector)
T6 sequence (P23979 24-483 isoform P23979-2 limits assumed): T1 sequence (P23979 24-483 isoform P23979-2 R92A) with A69R
Description: as §1, §2

[7] = tested on: α7nAChR; parameters: method as in PMID 11212100, PMID 15781147; conditions: cited from earlier work
[8] = tertiary ammonium in the bicyclic ring; no reference given; cited from earlier work
[9] = tested on: human 5-HT3AR with mutations at the Arg65 position; parameters: method as in PMID 28137449; conditions: cited from earlier work
[10] = serotonin dose response, TEVC at −60 mV, oocytes

NCCc1c[nH]c2ccc(O)cc12 [serotonin]
Normalized current ([1]; 2.5 microM serotonin): 0.00482
Normalized current ([1]; 5 microM serotonin): 0.04808
Normalized current ([1]; 15 microM serotonin): 0.6252
Normalized current ([1]; 20 microM serotonin): 0.7837
Normalized current ([1]; 100 microM serotonin): 1
Hill coefficient (nH) [1, 10]: 4.4 ± 0.59
Normalized current ([2]; 20 microM serotonin): 0.00976
Normalized current ([2]; 50 microM serotonin): 0.04708
Normalized current ([2]; 100 microM serotonin): 0.2083
Normalized current ([2]; 200 microM serotonin): 0.2793
Normalized current ([2]; 500 microM serotonin): 0.6574
Normalized current ([2]; 1000 microM serotonin): 0.8828
Normalized current ([2]; 2000 microM serotonin): 1
Hill coefficient (nH) [2, 10]: 1.58 ± 0.24
Normalized current ([3]; 2 microM serotonin): 0.00868
Normalized current ([3]; 5 microM serotonin): 0.07991
Normalized current ([3]; 10 microM serotonin): 0.4765
Normalized current ([3]; 15 microM serotonin): 0.7556
Normalized current ([3]; 30 microM serotonin): 0.8311
Normalized current ([3]; 100 microM serotonin): 1
Hill coefficient (nH) [3, 10]: 3.1 ± 0.72
Normalized current ([4]; 10 microM serotonin): 0.04616
Normalized current ([4]; 30 microM serotonin): 0.2137
Normalized current ([4]; 50 microM serotonin): 0.6516
Normalized current ([4]; 100 microM serotonin): 0.7792
Normalized current ([4]; 250 microM serotonin): 0.904
Normalized current ([4]; 500 microM serotonin): 0.985
Normalized current ([4]; 1000 microM serotonin): 1
Hill coefficient (nH) [4, 10]: 2.6 ± 0.71
Normalized current ([5]; 5 microM serotonin): 0.02946
Normalized current ([5]; 10 microM serotonin): 0.2522
Normalized current ([5]; 30 microM serotonin): 0.6081
Normalized current ([5]; 50 microM serotonin): 0.8641
Normalized current ([5]; 100 microM serotonin): 0.8795
Normalized current ([5]; 250 microM serotonin): 0.9933
Normalized current ([5]; 500 microM serotonin): 0.9971
Normalized current ([5]; 1000 microM serotonin): 1
Hill coefficient (nH) [5, 10]: 1.9 ± 0.27
Hill coefficient (nH) ([6]; serotonin dose response, TEVC at −60 mV, oocytes, WT): 2.3 ± 0.17
Normalized current ([6]; 1 microM serotonin): 0.091
Normalized current ([6]; 2 microM serotonin): 0.3528
Normalized current ([6]; 3 microM serotonin): 0.5303
Normalized current ([6]; 5 microM serotonin): 0.8338
Normalized current ([6]; 10 microM serotonin): 0.9464
Normalized current ([6]; 30 microM serotonin): 1

CN1C2CCCC1CC(NC(=O)c1nn(C)c3ccccc13)C2 (stereo not shown) [granisetron]
binding to α7nAChR [7]: does not bind
pKa [8]: 9.6

CN1[C@@H]2CC[C@H]1C[C@@H](OC(=O)c1c[nH]c3ccccc13)C2 [tropisetron]
binding to α7nAChR [7]: bind to α7nAChR leading to channel activation
effect of mutations at the Arg65 position on binding [9]: only reduced
